Experimental data published in patent publication US8450357B2, “Compositions comprising an aryl pyrazole and/or a formamidine, methods and uses thereof” (Merial Limited, priority 2008, dated 2013).

Legend:
[1] = test system: fleas (Ctenocephalides felis); assay: Study A: flea efficacy of Compound 1 spot-on formulations in dogs; assay type: in vivo
Experimental: An initial clinical study was conducted to test the efficacy of Compound 1 (3-cyano-1-(2-chloro-6-fluoro-4-trifluoromethylphenyl)-4-dichlorofluoromethylsulfinyl-5-methyl-1H-pyrazole) against ticks and fleas in various test formulations. Five test groups and an untreated control were evaluated. Each test group included six dogs. Compound was dissolved in a solvent or a combination of two or more solvents at 10% w/w. Test articles were formulated as topical spot-on solutions containing compound 1, 10% w/v in a solvent or a combination of solvents as described above. Dogs were infested with approximately 50 ticks (Rhipicephalus sanguineus) on days −1, 7, 14, 21, 28, 35 and 42. Dogs were also infested with approximately 100 fleas (Ctenocephalides felis) on days −1, 8, 15, 22, 29, 36, and 43. Treatment was applied by parting the hair and applying the formulation directly onto the skin on one spot at the midline of the neck, between the base of the skull and the shoulder blades. The dose rate of each of the topical solutions was 0.1 ml/kg (10 mg/kg) body weight. The efficacy of compound 1 in various formulations is shown Table 2 below.

[2] = test system: ticks (Rhipicephalus sanguineus); assay: Study B: tick efficacy of Compound 1 spot-on formulations in dogs; assay type: in vivo
Source text: A separate clinical efficacy study in dogs was designed with an untreated control group and 5 test groups treated with compound 1. Each group had six dogs. Test articles were formulated as topical spot-on solutions containing compound 1, 10-20% w/v in a solvent or a combination of solvents as described above. Dogs were infested with approximately 50 ticks (Rhipicephalus sanguineus) on days −1, 7, 14, 21, 28, 35 and 42. Dogs were also infested with approximately 100 fleas (Ctenocephalides felis) on days −1, 8, 15, 22, 29, 36, and 43. Treatment was applied by parting the hair and applying the formulation directly onto the skin on one spot at the midline of the neck, between the base of the skull and the shoulder blades. […] […] It should be noted that Study A and Study B were conducted at different times and locations, and the results of each clinical study may differ from the other based on various environmental factors. Thus, the results of one clinical study should not be compared with those of another due to these factors.

[3] = Crystal formation of amitraz formulations on storage or on the coat; assay type: physicochemical
Experimental: Solutions of amitraz in certain solvents at high concentration result in the appearance of crystals over time. […] The solubility of amitraz in butyl acetate is lower then in anisole, MIK and ethyl benzoate. […] Additionally, when amitraz (25%) in butyl acetate formulations were stored at 50° C. in a chamber, they evaporated slightly. […] Again, lowering concentration to 20% and addition of co-solvents with higher solubility of amitraz avoided crystallization of amitraz. Unexpectedly, this addition of co-solvents caused the effects described below in Example 9.

Compound: Cc1c([S+]([O-])C(F)(Cl)Cl)c(C#N)nn1-c1c(F)cc(C(F)(F)F)cc1Cl (stereo not shown) [Compound 1, 3-cyano-1-(2-chloro-6-fluoro-4-trifluoromethylphenyl)-4-dichlorofluoromethylsulfinyl-5-methyl-1H-pyrazole]
- % Efficacy against fleas ([1]; Day 2, Trt. Group 2: 10 mg/kg in Butyl acetate/octyl acetate): 99.6%
- % Efficacy against fleas ([1]; Day 2, Trt. Group 3: 10 mg/kg in Diethylene glycol monoethyl ether (transcutol)/N-methyl-2-pyrrolidone): 96.0%
- % Efficacy against fleas ([1]; Day 2, Trt. Group 4: 10 mg/kg in Dipropylene glycol monomethyl ether/butyl acetate): 100%
- % Efficacy against fleas ([1]; Day 2, Trt. Group 5: 10 mg/kg in Diisopropyl adipate): 100%
- % Efficacy against fleas ([1]; Day 2, Trt. Group 6: 10 mg/kg in Triacetin): 98.0%
- % Efficacy against fleas ([1]; Day 9, Trt. Group 2: 10 mg/kg in Butyl acetate/octyl acetate): 100%
- % Efficacy against fleas ([1]; Day 9, Trt. Group 3: 10 mg/kg in Diethylene glycol monoethyl ether (transcutol)/N-methyl-2-pyrrolidone): 100%
- % Efficacy against fleas ([1]; Day 9, Trt. Group 4: 10 mg/kg in Dipropylene glycol monomethyl ether/butyl acetate): 100%
- % Efficacy against fleas ([1]; Day 9, Trt. Group 5: 10 mg/kg in Diisopropyl adipate): 100%
- % Efficacy against fleas ([1]; Day 9, Trt. Group 6: 10 mg/kg in Triacetin): 100%
- % Efficacy against fleas ([1]; Day 16, Trt. Group 2: 10 mg/kg in Butyl acetate/octyl acetate): 100%
- % Efficacy against fleas ([1]; Day 16, Trt. Group 3: 10 mg/kg in Diethylene glycol monoethyl ether (transcutol)/N-methyl-2-pyrrolidone): 99.8%
- % Efficacy against fleas ([1]; Day 16, Trt. Group 4: 10 mg/kg in Dipropylene glycol monomethyl ether/butyl acetate): 100%
- % Efficacy against fleas ([1]; Day 16, Trt. Group 5: 10 mg/kg in Diisopropyl adipate): 100%
- % Efficacy against fleas ([1]; Day 16, Trt. Group 6: 10 mg/kg in Triacetin): 100%
- % Efficacy against fleas ([1]; Day 23, Trt. Group 2: 10 mg/kg in Butyl acetate/octyl acetate): 99.4%
- % Efficacy against fleas ([1]; Day 23, Trt. Group 3: 10 mg/kg in Diethylene glycol monoethyl ether (transcutol)/N-methyl-2-pyrrolidone): 98.8%
- % Efficacy against fleas ([1]; Day 23, Trt. Group 4: 10 mg/kg in Dipropylene glycol monomethyl ether/butyl acetate): 99.5%
- % Efficacy against fleas ([1]; Day 23, Trt. Group 5: 10 mg/kg in Diisopropyl adipate): 100%
- % Efficacy against fleas ([1]; Day 23, Trt. Group 6: 10 mg/kg in Triacetin): 100%
- % Efficacy against fleas ([1]; Day 30, Trt. Group 2: 10 mg/kg in Butyl acetate/octyl acetate): 94.5%
- % Efficacy against fleas ([1]; Day 30, Trt. Group 3: 10 mg/kg in Diethylene glycol monoethyl ether (transcutol)/N-methyl-2-pyrrolidone): 91.4%
- % Efficacy against fleas ([1]; Day 30, Trt. Group 4: 10 mg/kg in Dipropylene glycol monomethyl ether/butyl acetate): 83.2%
- % Efficacy against fleas ([1]; Day 30, Trt. Group 5: 10 mg/kg in Diisopropyl adipate): 92.9%
- % Efficacy against fleas ([1]; Day 30, Trt. Group 6: 10 mg/kg in Triacetin): 99.7%
- % Efficacy against fleas ([1]; Day 37, Trt. Group 2: 10 mg/kg in Butyl acetate/octyl acetate): 80.4%
- % Efficacy against fleas ([1]; Day 37, Trt. Group 3: 10 mg/kg in Diethylene glycol monoethyl ether (transcutol)/N-methyl-2-pyrrolidone): 85.3%
- % Efficacy against fleas ([1]; Day 37, Trt. Group 4: 10 mg/kg in Dipropylene glycol monomethyl ether/butyl acetate): 76.5%
- % Efficacy against fleas ([1]; Day 37, Trt. Group 5: 10 mg/kg in Diisopropyl adipate): 69.1%
- % Efficacy against fleas ([1]; Day 37, Trt. Group 6: 10 mg/kg in Triacetin): 98.9%
- % Efficacy against fleas ([1]; Day 44, Trt. Group 2: 10 mg/kg in Butyl acetate/octyl acetate): 46.9%
- % Efficacy against fleas ([1]; Day 44, Trt. Group 3: 10 mg/kg in Diethylene glycol monoethyl ether (transcutol)/N-methyl-2-pyrrolidone): 38.9%
- % Efficacy against fleas ([1]; Day 44, Trt. Group 4: 10 mg/kg in Dipropylene glycol monomethyl ether/butyl acetate): 31.1%
- % Efficacy against fleas ([1]; Day 44, Trt. Group 5: 10 mg/kg in Diisopropyl adipate): 40.3%
- % Efficacy against fleas ([1]; Day 44, Trt. Group 6: 10 mg/kg in Triacetin): 93.0%
- % Efficacy against ticks ([2]; Day 1, Trt. Group 2: 0.1 ml/kg (10 mg/kg) in Triacetin): 94.8%
- % Efficacy against ticks ([2]; Day 1, Trt. Group 3: 0.2 ml/kg (20 mg/kg) in Triacetin): 93.9%
- % Efficacy against ticks ([2]; Day 1, Trt. Group 4: 10 mg/kg in Diisopropyl adipate): 95.6%
- % Efficacy against ticks ([2]; Day 1, Trt. Group 5: 10 mg/kg in Diethylene glycol monoethyl ether (transcutol)): 87.4%
- % Efficacy against ticks ([2]; Day 1, Trt. Group 6: 10 mg/kg in Triacetin/diisopropyl adipate): 94.8%
- % Efficacy against ticks ([2]; Day 2, Trt. Group 2: 0.1 ml/kg (10 mg/kg) in Triacetin): 99.6%
- % Efficacy against ticks ([2]; Day 2, Trt. Group 3: 0.2 ml/kg (20 mg/kg) in Triacetin): 98.9%
- % Efficacy against ticks ([2]; Day 2, Trt. Group 4: 10 mg/kg in Diisopropyl adipate): 98.9%
- % Efficacy against ticks ([2]; Day 2, Trt. Group 5: 10 mg/kg in Diethylene glycol monoethyl ether (transcutol)): 98.5%
- % Efficacy against ticks ([2]; Day 2, Trt. Group 6: 10 mg/kg in Triacetin/diisopropyl adipate): 99.6%
- % Efficacy against ticks ([2]; Day 9, Trt. Group 2: 0.1 ml/kg (10 mg/kg) in Triacetin): 100%
- % Efficacy against ticks ([2]; Day 9, Trt. Group 3: 0.2 ml/kg (20 mg/kg) in Triacetin): 100%
- % Efficacy against ticks ([2]; Day 9, Trt. Group 4: 10 mg/kg in Diisopropyl adipate): 100%
- % Efficacy against ticks ([2]; Day 9, Trt. Group 5: 10 mg/kg in Diethylene glycol monoethyl ether (transcutol)): 100%
- % Efficacy against ticks ([2]; Day 9, Trt. Group 6: 10 mg/kg in Triacetin/diisopropyl adipate): 100%
- % Efficacy against ticks ([2]; Day 16, Trt. Group 2: 0.1 ml/kg (10 mg/kg) in Triacetin): 100%
- % Efficacy against ticks ([2]; Day 16, Trt. Group 3: 0.2 ml/kg (20 mg/kg) in Triacetin): 100%
- % Efficacy against ticks ([2]; Day 16, Trt. Group 4: 10 mg/kg in Diisopropyl adipate): 100%
- % Efficacy against ticks ([2]; Day 16, Trt. Group 5: 10 mg/kg in Diethylene glycol monoethyl ether (transcutol)): 100%
- % Efficacy against ticks ([2]; Day 16, Trt. Group 6: 10 mg/kg in Triacetin/diisopropyl adipate): 100%
- % Efficacy against ticks ([2]; Day 23, Trt. Group 2: 0.1 ml/kg (10 mg/kg) in Triacetin): 100%
- % Efficacy against ticks ([2]; Day 23, Trt. Group 3: 0.2 ml/kg (20 mg/kg) in Triacetin): 100%
- % Efficacy against ticks ([2]; Day 23, Trt. Group 4: 10 mg/kg in Diisopropyl adipate): 99.1%
- % Efficacy against ticks ([2]; Day 23, Trt. Group 5: 10 mg/kg in Diethylene glycol monoethyl ether (transcutol)): 100%
- % Efficacy against ticks ([2]; Day 23, Trt. Group 6: 10 mg/kg in Triacetin/diisopropyl adipate): 100%
- % Efficacy against ticks ([2]; Day 30, Trt. Group 2: 0.1 ml/kg (10 mg/kg) in Triacetin): 98.8%
- % Efficacy against ticks ([2]; Day 30, Trt. Group 3: 0.2 ml/kg (20 mg/kg) in Triacetin): 100%
- % Efficacy against ticks ([2]; Day 30, Trt. Group 4: 10 mg/kg in Diisopropyl adipate): 99.1%
- % Efficacy against ticks ([2]; Day 30, Trt. Group 5: 10 mg/kg in Diethylene glycol monoethyl ether (transcutol)): 98.8%
- % Efficacy against ticks ([2]; Day 30, Trt. Group 6: 10 mg/kg in Triacetin/diisopropyl adipate): 98.8%
- % Efficacy against ticks ([2]; Day 44, Trt. Group 2: 0.1 ml/kg (10 mg/kg) in Triacetin): 94.5%
- % Efficacy against ticks ([2]; Day 44, Trt. Group 3: 0.2 ml/kg (20 mg/kg) in Triacetin): 99.4%
- % Efficacy against ticks ([2]; Day 44, Trt. Group 4: 10 mg/kg in Diisopropyl adipate): 93.4%
- % Efficacy against ticks ([2]; Day 44, Trt. Group 5: 10 mg/kg in Diethylene glycol monoethyl ether (transcutol)): 98.5%
- % Efficacy against ticks ([2]; Day 44, Trt. Group 6: 10 mg/kg in Triacetin/diisopropyl adipate): 96.6%
- % Efficacy against ticks ([2]; Day 51, Trt. Group 2: 0.1 ml/kg (10 mg/kg) in Triacetin): 90.8%
- % Efficacy against ticks ([2]; Day 51, Trt. Group 3: 0.2 ml/kg (20 mg/kg) in Triacetin): 99.3%
- % Efficacy against ticks ([2]; Day 51, Trt. Group 4: 10 mg/kg in Diisopropyl adipate): 87.9%
- % Efficacy against ticks ([2]; Day 51, Trt. Group 5: 10 mg/kg in Diethylene glycol monoethyl ether (transcutol)): 98.9%
- % Efficacy against ticks ([2]; Day 51, Trt. Group 6: 10 mg/kg in Triacetin/diisopropyl adipate): 91.6%
- % Efficacy against ticks ([2]; Day 58, Trt. Group 2: 0.1 ml/kg (10 mg/kg) in Triacetin): 74.6%
- % Efficacy against ticks ([2]; Day 58, Trt. Group 3: 0.2 ml/kg (20 mg/kg) in Triacetin): 97.6%
- % Efficacy against ticks ([2]; Day 58, Trt. Group 4: 10 mg/kg in Diisopropyl adipate): 89.5%
- % Efficacy against ticks ([2]; Day 58, Trt. Group 5: 10 mg/kg in Diethylene glycol monoethyl ether (transcutol)): 94.1%
- % Efficacy against ticks ([2]; Day 58, Trt. Group 6: 10 mg/kg in Triacetin/diisopropyl adipate): 88.1%

Compound: Cc1ccc(/N=C/N(C)/C=N/c2ccc(C)cc2C)c(C)c1 [Amitraz, amitraz]
- crystals upon cooling to room temperature ([3]; amitraz (25%) in butyl acetate stored at 50° C. in a chamber): precipitated crystals
- crystals on the coat of animals ([3]; amitraz (25%) in butyl acetate, clinical studies): produced white crystals
